# Measured values reported in patent US20040248909A1, “Adenosine a1 receptor antagonist for treating hypoxia-induced learning memory impairment” (priority 2001, published 2004).
# Tests used:
# [1] = test system: CA1 pyramidal cells; assay: Sch-CA1 synaptic transmission (EPSPs) in hippocampal slices during brief hypoxia (synaptic arrest); type: cell-based, rat
# Experimental: (§1) Brain slices and electrophysiology. Male Sprague-Dawley rats (150-200 gm) were anesthetized with pentobarbital and the brains were removed and cooled rapidly in aCSF solution, bubbled continuously with 95% O2 and 5% CO2. Hippocampi were sliced ([…]) and placed in oxygenated aCSF (NaCl, 124 mM; KCl 3; MgSO4 1.3; CaCl2 2.4; NaHCO3 26; NaH2PO4 1.25; and glucose 10). The CA1 pyramidal cells were recorded at 30-31° C. with sharp electrodes (tip resistance: 60-120 MΩ). Study was performed on CA1 neurons with stable resting membrane potential more negative than −70 mV. Unless otherwise mentioned, test stimuli were applied at frequency of 1 per minute (0.017 Hz). Signals were amplified with AxoClamo-2B amplifier, digitized and stored using DigiData 1200 with the P-Clamp data collection and analysis software (Axon Instruments, Inc.).
# (§2) Hypoxia. Episodes of hypoxia were induced by replacing the oxygen supply with 95% N2/5% O2/5% CO2 for 3 min or 95% N2/5% CO2 for 100 s. […]
# (§3) The period of hypoxia is known to block synaptic transmission of glutarmatergic inputs^8, GABAergic input^8,10 and cholinergic inputs ^11,12, causing disconnection, or synaptic ‘arrest’, of CA1 neuronal network^8. […] Effects of brief hypoxia on synaptic transmission and of agents on hypoxic responses were monitored on responses of CA1 pyramidal cells to Sch activation. […]
# [2] = test system: CA1 pyramidal cells; assay: Carbachol-induced cholinergic CA1 θ field potential and intracellular θ in hippocampal slices, with or without brief hypoxia; type: cell-based, rat
# Experimental: as §1
# Hypoxia. Episodes of hypoxia were induced by replacing the oxygen supply with […] for 3 min or 95% N2/5% CO2 for 100 s. […] The hypoxia is milder than those used by others to produce an irreversible impairment of synaptic transmission^25.
# Effects of brief hypoxia on functions of CA1 neurons were monitored on synaptic transmission, long-term potentiation (LTP) of glutamatergic EPSPs, and cholinergic θ, a memory-related neuronal activity synchronization that depends on a temporal heterosynaptic interaction. Bath application of carbachol (50 μM, 20 min), a cholinergic receptor agonist, to hippocampal slices mimicked septal activation and diffuse acetylcholine transmission and induced CA1 θ field potential (FIG. 1a; peak amplitude: 0.73±0.02 mV, n=10, p<0.05, at 7.4±0.7 Hz from background noise). The θ is sensitive to atropine blockade and lasted for more than 3h^7. The θ oscillation of membrane potential (7.5±1.0 mV; n=18; p<0.05) was also observed in CA1 pyramidal cells (intracellular θ; FIG. 1b). […] LTP of responses to schaffer collateral (Sch) glutamatergic inputs (FIG. 1c,e), however, was not reduced, but enhanced, by the hypoxia (FIG. 1d,e), consistent with reported hypoxic LTP^8 and the observation that LTP expression is not vulnerable to transient hypoxia a few minutes after hypoxia.
# [3] = test system: hypoxia rats; assay: Hidden-platform water maze spatial learning and memory in rats subjected to brief hypoxia; type: in vivo, rat; settings: bilateral i.c.v. 400 nmoles/site
# Experimental: The figure illustrates experimental protocol (FIG. 4a), escape latency (means±SEM) in water maze training (FIG. 4b) across 12 trials (F11,312=50.14, p<0.0001), and quadrant preference (FIGS. 4c, 4d and 4e) conducted at the end of the twelfth training session, and swimming distance (in 1 min; FIG. 4f). Rats were either subjected to air or hypoxia (95% N2/5% CO2 for 100 s) about 30 min in a glass jar after the 2nd-or 4th trial of the day. Bilateral i.c.v. CPDPX (400 nmoles/site) or vehicle were administered before the 2nd and 4th trials of the day. Quadrant 4 is the target quadrant during training.
# Spatial maze tasks. Male adult Wistar rats (200-250 gm) were anesthetized with sodium pentobarbital (60 mg/kg, i.p) and placed in a stereotactic apparatus (Kopf Instruments, Tujunga, Calif.). Two stainless steel guide cannulas were placed with the tips positioned at the coordinates (anterior-posterior, 0.5 mm; lateral, 1.5 mm; horizontal, 3.2 mm), under aseptic conditions. A 7-day recovery period was allowed before any further experimentation. All rats were randomly assigned to different groups (10 each) and swam for 2 min in a 1.5 m (diameter)×0.6 m (depth) pool (22±1° C.). […]
# One of the most persistent consequences of transient hypoxia/ischemia is amnesia. Effects of brief hypoxia and CPDPX on spatial learning (FIG. 4a) were evaluated in rats, using a hidden-platform water maze. […]
# [4] = biological target: T1, adenosine A1 receptor (Rattus norvegicus, UniProt P25099); settings: cited from earlier work
# T1 sequence (P25099 1-326): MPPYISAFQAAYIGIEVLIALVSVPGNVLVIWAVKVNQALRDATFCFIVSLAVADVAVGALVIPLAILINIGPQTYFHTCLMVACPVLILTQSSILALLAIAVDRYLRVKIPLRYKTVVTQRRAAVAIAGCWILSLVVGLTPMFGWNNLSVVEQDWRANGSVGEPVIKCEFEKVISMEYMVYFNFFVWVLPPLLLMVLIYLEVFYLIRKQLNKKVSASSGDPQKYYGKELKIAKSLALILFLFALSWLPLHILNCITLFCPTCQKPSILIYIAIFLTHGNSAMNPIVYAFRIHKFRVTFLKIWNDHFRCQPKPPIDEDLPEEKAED
# [5] = test system: CA1 pyramidal cells; assay: Membrane response of CA1 pyramidal cells to local application of glutamate; type: cell-based, rat; settings: 20 μl of 10 mM
# Experimental: as §1, §2, §3
structure (smiles),measurement,setting,value
"CCCn1c(=O)c2[nH]c(C3CCCC3)nc2n(CCC)c1=O [CPDPX, 8-cyclopentyl-1,3-dipropylxanthine]",synaptic transmission at the end of the hypoxia versus control 100%,"[1]; Sch-CA1 EPSPs, brief hypoxia 5% O2 3 min, 10 μM, n=7, p>0.05",99.2±2.4%
same,effect on hypoxic synaptic arrest,"[1]; end of 3 min hypoxia, citicoline 100 μM, 8-cyclopentyl-1,3-dipropylxanthine 10 μM",synaptic arrest was abolished
same,intracellular θ after brief hypoxia (versus pre-hypoxia),"[2]; in presence of CPDPX, CA1 pyramidal cells, n=8, p>0.05",99.6±3.0%
same,θ activity after brief hypoxia (versus pre-hypoxia),"[2]; in presence of CPDPX, carbachol-induced CA1 θ, n=6, p>0.05",100.2±3.2%
same,quadrant preference in quadrant test,"[3]; 24 hrs after last training trial, F3,36=169.7, p<0.0001",showed a preference for the target quadrant
same,effect on hypoxic impairment of spatial memory (escape latency),[3]; hypoxia 95% N2/5% CO2 100 s,eliminated hypoxic impairment on the spatial memory
same,effect on adenosine-mediation of anoxia induced synaptic glutamate release in CA1 pyramidal neurons,[4]; Katchman et al. 1996,not affected
same,effect on hypoxia-induced accumulation of adenosine,[4]; Pearson et al. 2000,mitigates hypoxia-induced accumulation of adenosine during hypoxia
C[N+](C)(C)CCOC(N)=O [carbachol],frequency of induced CA1 θ field potential,"[2]; bath application 50 μM, 20 min",7.4±0.7 Hz
same,induced CA1 θ field potential peak amplitude,"[2]; bath application 50 μM, 20 min, n=10",0.73±0.02 mV
same,θ oscillation of membrane potential (intracellular θ),"[2]; carbachol 50 μM, CA1 pyramidal cells, n=18",7.5±1.0 mV
N[C@@H](CCC(=O)O)C(=O)O [glutamate],"peak inward current, control value",[5]; local application before hypoxia,206.8±9.7 pA
same,peak inward current,"[5]; local application during last few seconds of 3 min hypoxia, n=7",201.2±10.5 pA
